Measured values reported in patent US20180185408A1, “ANTIFUNGAL NYLON-3 POLYMERS AND COMBINATION THERAPY USING THEM TO TREAT FUNGAL INFECTIONS” (priority 2016, published 2018).
Values after ≈ are worked out from the molar mass of the structure shown. Values joined by “and” are separate entries in the source; they are usually repeats but may differ in a detail not shown here. Identical values can stand only once. Like-named read-outs stand apart in the source and are kept apart here.

Experiments:
P. murina = experiment: Pneumocystis ATP assay (ATP-lite M); assay type: cell-based, Pneumocystis murina
P. carinii = experiment: Pneumocystis ATP assay (ATP-lite M); assay type: cell-based, Pneumocystis carinii
Aspergillus terreus [1] = conditions: A. terreus; RPMI 1640 (0.2% Glucose); 1.00×10^5 cells/mL; 35° C.
P. marneffei mold = experiment: MIC by broth microdilution (EUCAST-AST-[…]); assay type: cell-based; conditions: 1.00×10^5 cells/mL, 35° C.
Aspergillus fumigatus [2] = experiment: microbe, parasite or virus in culture
Aspergillus spp. = experiment: microbe, parasite or virus in culture
Rhizopus arrhizus = experiment: MIC100 against filamentous fungi (CLSI M38-A2); assay type: cell-based; conditions: for polymer efficacy against filamentous fungi, 100%: Clinical isolate
Aspergillus terreus [3] = experiment: microbe, parasite or virus in culture
Aspergillus fumigatus [4] = experiment: Checkerboard microdilution synergy (FIC); assay type: cell-based; conditions: for MIC: Aspergillus fumigatus; for MIC azole combination: POS in combination with MM:TM
Aspergillus fumigatus [5] = system: Aspergillus fumigatus
B. dermatitidis = experiment: MIC80 against dimorphic fungi (CLSI M38-A2); assay type: cell-based; conditions: Blastomyces dermatitidis
Scedosporium prolificans = experiment: MIC100 against filamentous fungi (CLSI M38-A2); assay type: cell-based
Fusarium oxysporum = experiment: MIC100 against filamentous fungi (CLSI M38-A2); assay type: cell-based; conditions: for polymer efficacy against filamentous fungi, 100%: Clinical isolate; for MIC: Fusarium oxysporum
[6] = system: Scedosporium apoiospermum; experiment: MIC100 against filamentous fungi (CLSI M38-A2); assay type: cell-based; conditions: for polymer efficacy against filamentous fungi, 100%: Clinical isolate
Coccidioides spps. = experiment: microbe, parasite or virus in culture; assay type: cell-based
Paecilomyces variotii = experiment: MIC100 against filamentous fungi (CLSI M38-A2); assay type: cell-based
H. capsulatum = experiment: microbe, parasite or virus in culture; assay type: cell-based; conditions: Histoplasma capsulatum
[7] = MM:TM with posaconazole, isolate CEA10 (Sensitive), […] 10^5 cells/mL
[8] = MM:TM with posaconazole, isolate F11628 (Resistance), […] 10^5 cells/mL
[9] = MM:TM with posaconazole, isolate F16216 (Resistance), […] 10^5 cells/mL

SMILES: CC1(C)S[C@@H]2[C@H](NC(=O)[C@H](N)c3ccccc3)C(=O)N2[C@H]1C(=O)O [Ampicillin]
- P. murina % reduction in ATP/vehicle control (P. murina; 10 ug/mL, 24 hour): 0%
- P. murina % reduction in ATP/vehicle control (P. murina; 10 ug/mL, 48 hr): 0.9%
- P. murina % reduction in ATP/vehicle control (P. murina; 10 ug/mL, 72 hr): 0%
- P. carinii % reduction in ATP/vehicle control (P. carinii; 10 ug/mL, 24 hour): 12.28%
- P. carinii % reduction in ATP/vehicle control (P. carinii; 10 ug/mL, 48 hr): 0%
- P. carinii % reduction in ATP/vehicle control (P. carinii; 10 ug/mL, 72 hr): 2.65%

SMILES: N=C(N)c1ccc(OCCCCCOc2ccc(C(=N)N)cc2)cc1 [Pentamidine]
- P. murina % reduction in ATP/vehicle control (P. murina; 1 ug/mL, 24 hour): 90.80%
- P. murina % reduction in ATP/vehicle control (P. murina; 1 ug/mL, 48 hr): 84.39%
- P. murina % reduction in ATP/vehicle control (P. murina; 1 ug/mL, 72 hr): 91.86%
- P. carinii % reduction in ATP/vehicle control (P. carinii; 1 ug/mL, 24 hour): 86.79%
- P. carinii % reduction in ATP/vehicle control (P. carinii; 1 ug/mL, 48 hr): 87.62%
- P. carinii % reduction in ATP/vehicle control (P. carinii; 1 ug/mL, 72 hr): 95.23%

SMILES: CC[C@@H]([C@H](C)O)n1ncn(-c2ccc(N3CCN(c4ccc(OC[C@@H]5CO[C@@](Cn6cncn6)(c6ccc(F)cc6F)C5)cc4)CC3)cc2)c1=O [Posaconazole, posaconazole]
- MIC (Aspergillus terreus [1]): 1.0 µg/mL (≈ 1.43 µM)
- MIC (P. marneffei mold; RPMI 1640 (0.2% Glucose)): 0.5 µg/mL (≈ 0.713 µM)
- MIC (P. marneffei mold; Talaromyces marneffei, RPMI 1640 (2% Glucose), read-out: MIC): 0.5 µg/mL (≈ 0.713 µM)
- MIC (Aspergillus fumigatus [2]; 48 h, A. fumigatus AF293, visually, 1 × 10^5 cells/mL, 35° C.): 2 µg/mL and 2.9 µM
- MIC (Aspergillus fumigatus [2]; 48 h, A. fumigatus CEA10, visually, 1 × 10^5 cells/mL, 35° C.): 0.5 µg/mL and 0.7 µM
- MIC (Aspergillus fumigatus [2]; 48 h, A. fumigatus F11628, visually, 1 × 10^5 cells/mL, 35° C.): > 32 µg/mL and > 45.7 µM
- MIC (Aspergillus fumigatus [2]; 48 h, A. fumigatus F16216, visually, 1 × 10^5 cells/mL, 35° C.): 1.7 µg/mL and 2.5 µM
- MIC (Aspergillus fumigatus [2]; A. fumigatus AF293): 2.9 µM
- MIC (Aspergillus fumigatus [2]; A. fumigatus AF293, RPMI 1640 (0.2% Glucose), 1.00×10^5 cells/mL, 35° C.): 2 µg/mL
- MIC (Aspergillus fumigatus [2]; A. fumigatus AF293, RPMI 1640 (2% Glucose), 1.00×10^5 cells/mL, 35° C.): 1 µg/mL
- MIC (Aspergillus fumigatus [2]; A. fumigatus CEA10): 0.7 µM
- MIC (Aspergillus fumigatus [2]; A. fumigatus CEA10, RPMI 1640 (0.2% Glucose), 1.00×10^5 cells/mL, 35° C.): 0.5 µg/mL
- MIC (Aspergillus fumigatus [2]; A. fumigatus CEA10, RPMI 1640 (2% Glucose), 1.00×10^5 cells/mL, 35° C.): 0.5 µg/mL
- MIC (Aspergillus fumigatus [2]; A. fumigatus F11628): > 45.6 µM
- MIC (Aspergillus fumigatus [2]; A. fumigatus F11628, RPMI 1640 (0.2% Glucose), 1.00×10^5 cells/mL, 35° C.): > 32 µg/mL
- MIC (Aspergillus fumigatus [2]; A. fumigatus F11628, RPMI 1640 (2% Glucose), 1.00×10^5 cells/mL, 35° C.): > 32 µg/mL
- MIC (Aspergillus fumigatus [2]; A. fumigatus F16216): 2.5 µM
- MIC (Aspergillus fumigatus [2]; azole resistant strain F11628): > 45 µM
- MIC (Aspergillus fumigatus [2]; strain F16216): 2.5 µM
- MIC (Aspergillus spp.): ~1 µM (≈ 0.701 µg/mL)
- polymer efficacy against filamentous fungi, 100% (Rhizopus arrhizus; R. arrhizus RA1, Nose Tissue): 0.5
- polymer efficacy against filamentous fungi, 100% (Rhizopus arrhizus; R. arrhizus RA2, Tissue Upper Extremity): 0.5
- polymer efficacy against filamentous fungi, 100% (Rhizopus arrhizus; R. arrhizus RA3, Palate Tissue): 0.5
- MIC (Rhizopus arrhizus; Rhizopus arrhizus isolate RA1): 0.5 µg/mL (≈ 0.713 µM)
- MIC100 (Rhizopus arrhizus; Rhizopus arrhizus isolate RA2): 0.5 µg/mL (≈ 0.713 µM)
- MIC100 (Rhizopus arrhizus; Rhizopus arrhizus isolate RA3): 0.5 µg/mL (≈ 0.713 µM)
- MIC (Aspergillus terreus [3]): 1.4 µM and 1 µg/mL
- MIC (Aspergillus terreus [3]; 48 h): 1 µg/mL and 1.4 µM
- FICazole (Aspergillus fumigatus [4]; 08-12-12-13 Cyp51 [TR34/L98H], POS with MM:TM): 1.000
- FICazole (Aspergillus fumigatus [4]; 08-31-08-91 Cyp51 [TR34/L98H], POS with MM:TM, listed as POS): 0.500 and 0.250
- FICazole (Aspergillus fumigatus [4]; 08-36-03-25 Cyp51 [TR34/L98H], POS with MM:TM, listed as POS): 0.500 and 0.474
- FICazole (Aspergillus fumigatus [4]; 12-7505220 Cyp51 [TR34/L98H], POS with MM:TM, listed as POS): 0.240 and 0.263
- FICazole (Aspergillus fumigatus [4]; AF293, POS with MM:TM): 0.21
- FICazole (Aspergillus fumigatus [4]; AF293, POS with MM:TM, listed as POS): 0.25
- MIC (Aspergillus fumigatus [4]; 48 h, CEA10, MM:TM with Posaconazole, single agent, 48 h, read-out: MIC Alone): 0.7 µM
- MIC (Aspergillus fumigatus [4]; 48 h, CEA10, POS as single agent, 35° C.): 0.75 µg/mL
- MIC (Aspergillus fumigatus [4]; 48 h, F11628, POS as single agent, 35° C.): 48 µg/mL and 68.5 µM
- MIC (Aspergillus fumigatus [4]; 48 h, F16216, POS as single agent, 35° C.): 2 µg/mL and 2.85 µM
- MIC (Aspergillus fumigatus [4]; [7]): 0.5 µg/mL
- MIC (Aspergillus fumigatus [4]; [8]): 48 µg/mL
- MIC (Aspergillus fumigatus [4]; [9]): 1.75 µg/mL
- MIC Combined (Aspergillus fumigatus [4]; CEA10, MM:TM with Posaconazole in combination, 48 h): 0.1 µM
- MIC azole combination (Aspergillus fumigatus [4]; CEA10, 48 h, 35° C., listed as POS): 0.13 μg/mL and 0.19 μM
- FICazole (Aspergillus fumigatus [4]; CEA10, POS with MM:TM, listed as POS): 0.173 and 0.250 and 0.200
- FICazole (Aspergillus fumigatus [4]; D5 Cyp51 [G54E], POS with MM:TM, listed as POS): 0.125 and 0.063
- FICazole (Aspergillus fumigatus [4]; D7 Cyp51 [WT], POS with MM:TM): 0.263
- MIC azole combination (Aspergillus fumigatus [4]; F11628, 48 h, 35° C.): 0.13 µM
- FICazole (Aspergillus fumigatus [4]; F11628, POS with MM:TM, listed as POS): 0.002 and 0.001
- MIC azole combination (Aspergillus fumigatus [4]; F16216, 48 h, 35° C.): 2.14 µM
- FICazole (Aspergillus fumigatus [4]; [7]): 0.200
- FICazole (Aspergillus fumigatus [4]; [8]): 0.001
- FICazole (Aspergillus fumigatus [4]; [9]): 0.571
- increase in efficacy in the presence of MM:TM (Aspergillus fumigatus [4]; azole-resistant strain F11628): > 600 fold

SMILES: C[C@@H](c1ncncc1F)[C@](O)(Cn1cncn1)c1ccc(F)cc1F [VOR, voriconazole]
- polymer efficacy against filamentous fungi, 100% (Aspergillus fumigatus [5]; A. fumigatus AF1, AF293, Lung): 1
- polymer efficacy against filamentous fungi, 100% (Aspergillus fumigatus [5]; A. fumigatus AF2, Clinical isolate, Azole resistant): 1
- polymer efficacy against filamentous fungi, 100% (Aspergillus fumigatus [5]; A. fumigatus AF3, Clinical isolate, Azole susceptible): 0.25
- MIC80 (B. dermatitidis; Blastomyces dermatitidis isolate BD1): ≤ 0.03 µg/mL
- MIC80 (B. dermatitidis; Blastomyces dermatitidis isolate BD3): 0.5 µg/mL (≈ 1.43 µM)
- polymer efficacy against filamentous fungi, 100% (Scedosporium prolificans; L. prolificans LP1, Chest Wound, Clinical isolate): >16
- MIC (Scedosporium prolificans; Lomentospora prolificans, S. prolificans): > 16 µg/mL
- MIC100 (Scedosporium prolificans; Scedosporium prolificans isolate LP1): >16 µg/mL
- polymer efficacy against filamentous fungi, 100% (Fusarium oxysporum; F. oxysporum FO1, Blood): 4
- polymer efficacy against filamentous fungi, 100% (Fusarium oxysporum; F. oxysporum FO2, Bone): 4
- polymer efficacy against filamentous fungi, 100% (Fusarium oxysporum; F. oxysporum FO3, Blood): >16
- MIC (Fusarium oxysporum; Fusarium oxysporum isolate FO1): 4 µg/mL (≈ 11.5 µM)
- MIC (Fusarium oxysporum; Fusarium oxysporum isolate FO2): 4 µg/mL (≈ 11.5 µM)
- MIC (Fusarium oxysporum; Fusarium oxysporum isolate FO3): > 16 µg/mL
- polymer efficacy against filamentous fungi, 100% ([6]; S. apiopsermum SA1, Toe): 1
- polymer efficacy against filamentous fungi, 100% ([6]; S. apiopsermum SA2, Elbow Tissue): 1
- MIC ([6]; Scedosporium apiopsermum isolate SA1): 1 µg/mL (≈ 2.86 µM)
- MIC100 ([6]; Scedosporium apiopsermum isolate SA2): 1 µg/mL (≈ 2.86 µM)
- MIC80 (Coccidioides spps.; Coccidioides sp. isolate Cocci 1): 0.25 µg/mL (≈ 0.716 µM)
- MIC80 (Coccidioides spps.; Coccidioides sp. isolate Cocci 2): 0.125 µg/mL (≈ 0.358 µM)
- MIC80 (Coccidioides spps.; Coccidioides sp. isolate Cocci 3): 0.06 µg/mL (≈ 0.172 µM)
- MIC80 (Coccidioides spps.; Coccidioides sp. isolate Cocci 5): 0.125 µg/mL (≈ 0.358 µM)
- MIC80 (Coccidioides spps.; Coccidioides sp. isolate Cocci 6): 0.25 µg/mL (≈ 0.716 µM)
- MIC80 (Coccidioides spps.; Coccidioides sp. isolate Cocci 7): 0.125 µg/mL (≈ 0.358 µM)
- MIC80 (Coccidioides spps.; Coccidioides sp. isolate Cocci 8): 0.125 µg/mL (≈ 0.358 µM)
- MIC80 (Coccidioides spps.; Coccidioides sp. isolate Cocci 9): 1 µg/mL (≈ 2.86 µM)
- MIC80 (Coccidioides spps.; Coccidioides sp. isolate Cocci 10): 0.06 µg/mL (≈ 0.172 µM)
- polymer efficacy against filamentous fungi, 100% (Paecilomyces variotii; P. variotii QC, CLSI QC isolate for susceptibility testing): 0.125
- MIC (Paecilomyces variotii; Paecilomyces variotii, read-out: MIC100): 0.125 µg/mL (≈ 0.358 µM)
- MIC80 (H. capsulatum; Histoplasma capsulatum isolate HC1): ≤ 0.03 µg/mL
- MIC80 (H. capsulatum; Histoplasma capsulatum isolate HC2): 0.25 µg/mL (≈ 0.716 µM)
- MIC80 (H. capsulatum; Histoplasma capsulatum isolate HC3): 0.125 µg/mL (≈ 0.358 µM)
- MIC80 (H. capsulatum; Histoplasma capsulatum isolate HC4): 0.06 µg/mL (≈ 0.172 µM)
- MIC80 (H. capsulatum; Histoplasma capsulatum isolate HC5): 0.25 µg/mL (≈ 0.716 µM)
- MIC80 (H. capsulatum; Histoplasma capsulatum isolate HC6): 0.125 µg/mL (≈ 0.358 µM)
- MIC80 (H. capsulatum; Histoplasma capsulatum isolate HC7): 0.5 µg/mL (≈ 1.43 µM)
- MIC80 (H. capsulatum; Histoplasma capsulatum isolate HC8): 0.25 µg/mL (≈ 0.716 µM)
- MIC80 (H. capsulatum; Histoplasma capsulatum isolate HC9): 0.06 µg/mL (≈ 0.172 µM)
- MIC80 (H. capsulatum; Histoplasma capsulatum isolate HC10): 0.06 µg/mL (≈ 0.172 µM)
